# Patent US20160030391A1, “METHODS AND COMPOSITIONS FOR IMPROVING COGNITIVE FUNCTION” (THE JOHNS HOPKINS UNIVERSITY, priority 2013, published 2016)
# How the values were obtained:
# [1] = levetiracetam blood plasma levels in aged-impaired rats; assay type: in vivo; settings: rat, 60 mg/kg/day, 28-day treatment, read-out: mean levetiracetam blood plasma level
# Text: Rats: Blood was drawn from aged-impaired rats by cardiac puncture during perfusion after a 28-day levetiracetam treatment period and sent for analysis of levetiracetam plasma levels by MedTox Laboratories in St. Paul, Minn.
# [2] = tested on: somatostatin in DG hilus; test: anti-SOM immunohistochemistry, hilar interneuron counts after chronic levetiracetam; assay type: in vivo, rat; settings: levetiracetam 10 mg/kg/day, osmotic minipumps, four weeks, aged-impaired rats
# Method: Under isoflurane anesthesia, memory-impaired aged rats were implanted subcutaneously in the intrascapular region with osmotic mini-pumps (ALZET, Durect Corporation, Cupertino, Calif.) with levetiracetam (10 mg/kg/day) or saline vehicle for four weeks prior to perfusion. Young rats, which served as controls, received either saline vehicle in mini-pumps or no implantation.
# At the end of the 4-week treatment period, rats were anesthetized with isoflurane and perfused transcardiacally with 0.1 M phosphate buffer saline, followed by 4% paraformaldehyde in phosphate buffer. Brains were removed and post-fixed in paraformaldehyde overnight. […]
# Tissue was labeled with anti-SOM antiserum (Santa Cruz Biotechnology; cat. no. SC7819-P) using an established immunoperoxidase protocol and tissue sections were processed concurrently to minimize inter-replication variability (Haberman et al., 2009). […] The secondary antibody was detected with avidin-biotin complex (ABC Elite; Vector Laboratories Inc., Burlingame, Calif.) and the avidin-biotin complex was visualized with nickel-enhanced diaminobenzadine (Vector Laboratories Inc., Burlingame, Calif.). […]
# Interneuron quantification was performed using a Zeiss Axioplan 2 microscope equipped with a motorized stage. […] Neuron counts were analyzed as the total number of hilar interneurons per hippocampal section for each rat.
# [3] = tested on: entorhinal cortex of aMCI subjects; test: fMRI activity in entorhinal cortex during lure stimuli correctly identified as similar; assay type: in vivo, human; settings: levetiracetam 125 mg twice a day for two weeks vs placebo
# Text: As described above, the drug treatment period is the two weeks preceding Visit 1 or 2 (with the two week period preceding the other Visit being the placebo phase). […] Imaging data are obtained through high-resolution methods developed in the Stark laboratory. Data are collected on a Phillips 3 Tesla scanner (Eindhoven, The Netherlands) equipped with an 8-channel SENSE (Sensitivity Encoding) head coil, located at the F.M. Kirby Research Center for Functional Brain Imaging at the Kennedy Krieger Institute (Baltimore, Md.). High-resolution echo-planar images are collected using an acquisition matrix of 64×64, a repetition time of 1500 milliseconds, an echo time of 30 milliseconds, a […] of 70 degrees, a SENSE factor of 2, and an isotropic resolution of 1.5 mm×1.5 mm x 1.5 mm with no gap. Nineteen oblique slices are acquired parallel to the principal longitudinal axis of the hippocampus and covered the entire medial temporal lobe region bilaterally. […] Group data are analyzed using a two-way Analysis of Variance (ANOVA) with trial types and group as fixed factors, and subject as a random factor nested within group. […] The activity of the subject's medial temporal lobe is measured by functional MRI during the subject's participation in an explicit 3-alternative forced choice task, where participants view novel, repeated and similar (“lure”) stimuli. […]
smiles,measurement,setting,value
"CC[C@@H](C(N)=O)N1CCCC1=O [levetiracetam, (2S)-2-(2-oxopyrrolidin-1-yl)butanamide]",concentration at 28 days,[1],22400 ng/mL
same,levels of somatostatin in DG hilus (SOM-immunoreactive hilar neurons),[2],restores
same,EC activity during memory judgments (fMRI),[3],increases EC activity
